Assay [1] addresses IRAK4 protein in THP-1 cells (Homo sapiens (Human), UniProt Q9NWZ3). Briefly: PROTAC-induced IRAK4 protein degradation in THP-1 cells (Western Blot). The format is cell-based. The following applies: for DC50: concentration that degraded 50% of IRAK4, Western blotting, 24 hours after administration; for IRAK4 degradation rate 24 hours after administration of the compounds with a concentration of 1 μM: Western blotting. As for the experimental part: 2.1 Based on the experimental method of Western Blot, specific antibodies were used to stain the THP-1 cell samples treated by gel electrophoresis, and the degrading activity of the compounds on the IRAK4 protein in THP-1 cells was determined by analyzing the position and depth of staining. The concentrations of compound for the detection included 0 μM, 0.3 μM, 1 μM and 3 μM, and the cells were treated by the compound for 8 hours, 16 hours, 24 hours, and 48 hours. Glyceraldehyde-3-phosphate dehydrogenase (GAPDH) is an internal reference protein in this experiment.
Electrophoresis buffer: 50 mL MOPS SDS Running Buffer (20×) and 50 mL 20×TBS Tween-20 buffer were diluted with deionized water to 1 L as the electrophoresis buffer;
5% skim milk (w/v): 2.5 g skim milk was diluted with 50 mL 1×TBS Tween-20 buffer to prepare 5% skim milk;
5% BSA (w/v): 2.5 g BSA was diluted with 50 mL 1×TBS Tween-20 buffer to prepare 5% BSA;
Anti-IRAK4 antibody was diluted with 5% BSA at 1:1000 into a primary antibody working solution;
Goat Anti-Rabbit IgG H&L (HRP) was diluted with 5% BSA at 1:2000 into a second antibody working solution; and
Goat Anti-Mouse IgG H&L (HRP) was diluted with 5% BSA at 1:2000 into a second antibody working solution.
THP-1 cells were plated in a 6-well plate at a density of 1.5×10^6 cells per ml and incubated for 2 hours in a cell culture incubator under 37° C. and 5% CO2. The compound was diluted with DMSO to 0.6 mM, 0.2 mM and 0.06 mM respectively. 10 μL of compound solution was added to the corresponding wells, and continued to incubate in the incubator for 16 hours, 24 hours and 48 hours respectively. The compound-treated THP-1 cells in the well were collected, added with 120 μL of RIPA lysate containing protease inhibitor, Phosphatase Inhibitor Cocktail 2 and Phosphatase Inhibitor Cocktail 3, lysed on wet ice for 30 minutes, and then the cells lysate was centrifuged at a high speed and a low temperature for 5 minutes to collect the supernatant. The protein concentration of the cell sample was determined according to the instructions in the Pierce™ BCA Protein Assay Kit.
The concentration of the sample was adjusted to be consistent using lysis buffer and NuPAGE® LDS sample buffer containing 1M DTT. The samples were heated at 95° C. for 5 minutes and centrifuged at a low temperature and at a high speed. 20 μL of the prepared protein sample and 4 μL of PageRuler Prestained Protein Ladder were added into the gel well for running at 80V voltage for 0.5 hours, then the voltage was adjusted to 120V for further running for 1.5 hours. The gel was removed and the proteins in the gel were transferred to the IBlotTM 2 transfer membrane set at 20V. After successful transfer, bands at 65 kDa-40 kDa and 40 kDa-30 kDa were cut respectively. The membranes were blocked with 5% skim milk for 1 hour at room temperature. The membranes were washed three times with 1× concentration of TBST, then incubated with IRAK4 antibody working solution overnight at 4° C. The IRAK4 antibody working solution was discarded, and the membranes were washed three times with 1×concentration of TBST, and incubated with Goat Anti-Rabbit IgG H&L (HRP) working solution and Goat Anti-Mouse IgG H&L (HRP) working solution at room temperature. After 1 hour of incubation, the antibody working solution was discarded and the membranes were washed three times with 1× concentration of TBST. According to the instructions of the kit SuperSignal™ West Femto Maximum Sensitivity Substrate, the reagents in the kit were mixed in equal volume proportions to prepare a luminescent liquid mixture. The membranes were incubated for 1 minute, then removed for exposure.
The results of Western blotting 24 hours after administration of the compounds with a concentration of 1 μM were shown in Table 3: […]
For orientation: A western blot detects proteins with antibodies after separation by electrophoresis.

The target in another assay is kinase IRAK4 (Homo sapiens (Human), UniProt Q9NWZ3). Briefly: Inhibitory effects of compounds on kinase activity (fluorescence microfluidic mobility detection, competitive with ATP). The format is biochemical. The following applies: IRAK4 6 nM, ATP 10 μM. As for the experimental part:
Based on an experimental method of fluorescence microfluidic mobility detection, an IC50 value of competitive binding of kinase IRAK4 to ATP by the compounds was determined. The initial detection concentration of the compounds was 10 μM, diluted 4-fold gradient down to […], and tested in duplicate. Among them, commercial staurosporine was the standard control substance in this experiment.
1) IRAK4 kinase was dissolved in kinase buffer (50 mM HEPES pH 7.5, 10 mM MgCl2, 2 mM DTT and 0.01% Brij-35) to a final concentration of 6 nM.
2) The substrate peptide FAM-P8 and ATP were dissolved in the above kinase buffer. The final concentrations of the IRAK4 substrate peptide FAM-P8 and ATP were 3 μM and 10 μM respectively.
3) Dilution of the compounds: the compound was first diluted to 50 μM, and then diluted down with a 4-fold gradient of DMSO. The solution without the compound and kinase is used as a blank control, corresponding to the “minimum value” shown below; and the solution without the compound but with kinase, adenosine 5′-triphosphate disodium salt hydrate, DMSO and buffer is used as a positive control, corresponding to the “maximum value” shown below. 4) Kinase reaction and termination: 10 μL of kinase buffer was added to a 384-well plate containing 5 μL of the compound to be tested, and incubated at room temperature for 10 minutes. Another 10 μL of buffer containing the substrate peptide and adenosine 5′-triphosphate disodium salt hydrate was added to the 384-well plate. After incubation at 28° C. for one hour, 25 μL stop solution (100 mM HEPES pH 7.5, 50 mM EDTA, 0.2% Coating Reagent #3 and 0.015% Brij-35) was added to each well to terminate the reaction.
5) Data reading: the CaliperEZ Reader II instrument was used to read the conversion rate data. Conditions: downstream voltage −500V, upstream voltage −2250V, base pressure −0.5 PSI, and screening pressure −1.2 PSI.
6) Data calculation: the conversion rate data was copied from CaliperEZ Reader II and converted into inhibition rate data. The calculation formula is as follows:
[formula] • IC50 values were fitted using XLFit excel add-in version 5.4.0.8,
Y=Bottom+(Top−Bottom)/(1+(IC50/X)^HillSlope) Fitting formula: […]

Results on eleven molecules are retold here after patent US20240423977A1, “FIVE-MEMBERED RING-FUSED SIX-MEMBERED RING COMPOUND, PREPARATION METHOD THEREFOR, AND PHARMACEUTICAL COMPOSITION AND USE THEREOF” (HANGZHOU POLYMED BIOPHARMACEUTICALS, INC., priority 2022, published 2024).

In general, DC50 refers to the concentration giving 50% degradation. A lower DC50 goes with a more potent degrader. The term IC50 denotes the concentration needed to halve the response being measured.

Structures are written as SMILES.

IRAK4 protein in THP-1 cells, sequence (Q9NWZ3 whole entry): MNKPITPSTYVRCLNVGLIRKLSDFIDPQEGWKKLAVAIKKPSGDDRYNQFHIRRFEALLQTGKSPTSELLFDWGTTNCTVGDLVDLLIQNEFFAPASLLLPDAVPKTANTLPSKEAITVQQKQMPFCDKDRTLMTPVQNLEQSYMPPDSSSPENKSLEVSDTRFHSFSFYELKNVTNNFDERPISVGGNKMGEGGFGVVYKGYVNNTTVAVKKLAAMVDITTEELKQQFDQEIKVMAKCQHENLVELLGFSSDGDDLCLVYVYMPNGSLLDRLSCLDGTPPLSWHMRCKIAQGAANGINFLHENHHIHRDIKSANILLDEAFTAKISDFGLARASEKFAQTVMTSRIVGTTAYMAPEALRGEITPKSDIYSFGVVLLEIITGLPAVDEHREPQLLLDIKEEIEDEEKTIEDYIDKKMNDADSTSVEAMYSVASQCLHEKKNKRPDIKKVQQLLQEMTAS
kinase IRAK4, sequence (Q9NWZ3 whole entry): as above

`COc1cc2nn(C3CC4(CCN(C(=O)[C@H]5CC[C@H](Oc6ccc7c(c6)C(=O)N(C6CCC(=O)NC6=O)C7=O)CC5)CC4)C3)cc2cc1NC(=O)c1cccc(C(F)(F)F)n1` (some centres unmarked) [Compound I-31] returned a 50% degradation concentration (DC50) in assay [1] of 47.3 nM. On kinase IRAK4 (Table 2, substrate FAM-P8 3 μM), this molecule yielded an IC50 of 34 nM.

For `COc1cc2nn(C3CC4(CCN(C(=O)C5CCN(c6ccc7c(c6)C(=O)N(C6CCC(=O)NC6=O)C7=O)CC5)CC4)C3)cc2cc1NC(=O)c1cccc(C)n1` (centres unmarked) [Compound I-38], the DC50 in assay [1] amounted to 2.61 nM. On kinase IRAK4 (Table 2, substrate FAM-P8 3 μM), the half-maximal inhibitory concentration (IC50) worked out at 14.1 nM.

`O=C1CCC(N2C(=O)c3ccc(N4CCC(C(=O)N5CCC6(CC5)CC(n5cc7cc(NC(=O)c8cccc(C(F)(F)F)n8)c(C(=O)O)cc7n5)C6)CC4)cc3C2=O)C(=O)N1` (centres unmarked) [Compound I-48] came in with a DC50 in assay [1] of over 1000 nM. For the same molecule, at kinase IRAK4 (Table 2, substrate FAM-P8 3 μM), the IC50 is 19.2 nM.

In the case of `COc1cc2nn(C3CCN(C(=O)C4CCN(Cc5ccc6c(c5)C(=O)N(C5CCC(=O)NC5=O)C6=O)CC4)CC3)cc2cc1NC(=O)c1cccc(C(F)(F)F)n1` (centres unmarked) [II-16], in assay [1], the “IRAK4 degradation rate 24 hours after administration of the compounds with a concentration of 1 μM” value is under 25% and the DC50 worked out at 32.9 nM. Also, the IC50 on kinase IRAK4 (Table 1, class symbols) is under 100 nM. For the same molecule, the IC50 at kinase IRAK4 (Table 2, substrate FAM-P8 3 μM) was 14 nM.

For the molecule `O=C1CCC(N2C(=O)c3ccc(N4CCC(C(=O)N5CCC6(CC5)CC(n5cc7cc(NC(=O)c8cccc(C(F)(F)F)n8)c(F)cc7n5)C6)CC4)cc3C2=O)C(=O)N1` (centres unmarked) [Compound I-53], the 50% degradation concentration (DC50) in assay [1] was over 1000 nM. The molecule also yielded an IC50 at kinase IRAK4 (Table 2, substrate FAM-P8 3 μM) of 138 nM.

For `COc1cc2nn(C3CC4(CCN(CC(=O)N5CCN(c6ccc7c(c6)C(=O)N(C6CCC(=O)NC6=O)C7=O)CC5)CC4)C3)cc2cc1NC(=O)c1cccc(C(F)(F)F)n1` (centres unmarked) [Compound I-2], in assay [1], the “IRAK4 degradation rate 24 hours after administration of the compounds with a concentration of 1 μM” value was 75~100% and the DC50 turned out to be 4.41 nM. The same molecule gave an IC50 on kinase IRAK4 (Table 1, class symbols) of under 100 nM. For the same molecule, the IC50 on kinase IRAK4 (Table 2, substrate FAM-P8 3 μM) was 11 nM.

In assay [1], `COc1cc2nn(C3CC4(CCN(C(=O)C5(F)CCN(c6ccc7c(c6)C(=O)N(C6CCC(=O)NC6=O)C7=O)CC5)CC4)C3)cc2cc1NC(=O)c1cccc(N2CCOCC2)n1` (centres unmarked) [Compound I-50] returned a DC50 of 21.6 nM. This molecule came in with an IC50 on kinase IRAK4 (Table 2, substrate FAM-P8 3 μM) of 70.7 nM.

`COc1cc2nn(C3CC4(CCN(C(=O)C5CCN(c6ccc7c(c6)C(=O)N(C6CCC(=O)NC6=O)C7=O)CC5)CC4)C3)cc2cc1NC(=O)c1coc(-c2ccnc(C)c2)n1` (centres unmarked) [Compound I-36]: half-maximal degradation in assay [1] (DC50) was put at 1.16 nM. This molecule registered an IC50 at kinase IRAK4 (Table 2, substrate FAM-P8 3 μM) of 12.4 nM.

Take `CC(O)(c1cc2nn(C3CC4(CCN(C(=O)C5CCN(c6ccc7c(c6)C(=O)N(C6CCC(=O)NC6=O)C7=O)CC5)CC4)C3)cc2cc1NC(=O)c1cccc(C(F)(F)F)n1)C(F)(F)F` (centres unmarked) [Compound I-12F]: the 50% degradation concentration (DC50) in assay [1] amounted to 1.08 nM. At kinase IRAK4 (Table 2, substrate FAM-P8 3 μM), the IC50 is 57.6 nM.

In assay [1], `COc1cc2nn(C3CC4(CCN(C(=O)C5CCN(c6ccc7c(c6)C(=O)N(C6CCC(=O)NC6=O)C7=O)CC5)CC4)C3)cc2cc1NC(=O)c1cccc(C(F)F)n1` (centres unmarked) [Compound I-42] showed a half-maximal degradation concentration (DC50) of 1.2 nM. This molecule returned an IC50 on kinase IRAK4 (Table 2, substrate FAM-P8 3 μM) of 10.2 nM.

As to `COc1cc2nn(C3CC4(CCN(C(=O)[C@H]5CC[C@H](Nc6ccc7c(c6)C(=O)N([C@H]6CCC(=O)NC6=O)C7=O)CC5)CC4)C3)cc2cc1NC(=O)c1cccc(C(F)(F)F)n1` [Compound I-59], the 50% degradation concentration (DC50) in assay [1] is 8.05 nM. The molecule also returned an IC50 on kinase IRAK4 (Table 2, substrate FAM-P8 3 μM) of 27.3 nM.
